Source: patent publication US6858588B2, “Nitrile glycoside useful as a bioenhancer of drugs and nutrients, process of its isolation from moringa oleifera” (Council of Scientific and Industrial Research, priority 2003, dated 2005)

Assays:
[1] = tested on: B. subtilis (MTCC121); experiment: Bioactivity enhancement of antibiotics (killing, broth/titre assay) against B. subtilis; assay type: cell-based, Bacillus subtilis; conditions: Table 5
[2] = tested on: M. smegmatis (MC^2 155); experiment: Bioactivity enhancement of antibiotics (killing, broth/titre assay) against M. smegmatis; assay type: cell-based, Mycobacterium smegmatis; conditions: Table 5
[3] = tested on: E. coli (CA8000); experiment: Bioactivity enhancement of antibiotics (killing, broth/titre assay) against E. coli
[4] = human volunteers; formulation containing rifampicin, pyrazinamide and isoniazid; cited from earlier work
[5] = anaesthetized rat, 1-10 mg/kg I.V; cited from earlier work
[6] = tested on: M.tuberculosis H37Rv (ATCC 27294); experiment: Bioactivity enhancement of anti-tubercular drugs, radiometric BACTEC 460 TB system; assay type: cell-based, Mycobacterium tuberculosis; conditions: BACTEC 460, 12 days
[7] = Bioavailability test using gastro-intestinal epithelium (U-tube); assay type: in vitro ADME, goat; conditions: in combination; FIG. 3
Text: Specially designed U-tubes of glass consisting of two components (opposite-L type) were used in which one open end of an L-shaped was tapered to fit within the end of the other L-tube (as described in U.S. Pat. No. 6,410,059). The membrane of goat gut (initial part) was stretched and fixed to act as the barrier between the two ends such that by joining the two L-tubes, a U-tube was made. Sterile distilled water was then filled in both the sides to equal height/level. The antibiotic/compound was added to the donor tube (tapered) and through spectro-photometer, the transfer of molecule was observed using UV and visible absorption maxima of the respective molecules by taking the OD at defined wavelengths (264 nm for isoniazid).

[8] = tested on: E. coli cells (CA 8000), λ phage; experiment: λ phage adsorption on E. coli cells; conditions: Cells pretreated with niaziridin @ 1 ug/ml
Experimental: Overnight grown bacterial culture (Escherichia coli, CA 8000) was divided into 5 ml of aliquot each in screw cap tubes. One of the tube with the bacterial culture was treated with niaziridin to a final concentration of 1 μg/ml. Both the control and the treated tubes were incubated at 37° C. for 4 hours. The cultures were then infected with λ phage (MOI=10) for 10 minutes at 37° C. (for adsorption) followed by centrifugation at 10000 RPM for 10 minutes at 4° C.
The supernatant and the pellets for both treated and untreated cultures were then compared for the phage titer by plating on top agar containing sensitive bacteria at different dilutions.

[9] = tested on: C. albicans; experiment: Enhancement of anticandidial activity of clotrimazole, broth assay
[10] = tested on: E. coli DH5α; experiment: Enhancement of bacterial transformation with pUC18 plasmid DNA, DH5α
Experimental: (§1) Overnight grown bacterial E. coli DH5α (Sambrook at al^28) cells were diluted to 10 folds in growth medium and treated with niaziridin @1-10 μg/ml for 4 hours at 37° C. in a shaker (200 RPM).
(§2) These log phase cells were then treated with calcium chloride to induce competence and then transformed with pUC18 plasmid DNA and plated on Luria agar plates containing 100 μg/ml ampicillin.

[11] = tested on: E. coli CA8000; experiment: Enhancement of bacterial transformation with pUC18 plasmid DNA, CA8000
Experimental: as §1, §2

[12] = Amp (0.01) + Niaziridin 1.0 μg/ml
[13] = Nal (2.0) + Niaziridin 1.0 μg/ml
[14] = Rif (0.05) + Niaziridin 1.0 μg/ml
[15] = Tet (1.0) + Niaziridin 1.0 μg/ml
[16] = Amp (0.1) + Niaziridin 1.0 μg/ml
[17] = Nal (1.0) + Niaziridin 1.0 μg/ml
[18] = Tet (2.0) + Niaziridin 1.0 μg/ml
[19] = Cells pretreated with niaziridin at 1 ug/ml
[20] = Cells pretreated with niaziridin at 10 ug/ml
[21] = Table 4, Amp 6 μg/ml + Niaziridin 0.1 μg/ml
[22] = Table 4, Nal 6 μg/ml + Niaziridin 0.1 μg/ml
[23] = Table 4, Rif 20 μg/ml + Niaziridin 0.1 μg/ml
[24] = Table 4, Rif 30 μg/ml + Niaziridin 0.1 μg/ml
[25] = Table 4, Tet 1 μg/ml + Niaziridin 0.1 μg/ml
[26] = Table 4, Tet 2 μg/ml + Niaziridin 0.1 μg/ml

## CO[C@H]1/C=C/O[C@@]2(C)Oc3c(C)c(O)c4c(O)c(c(/C=N/N5CCN(C)CC5)c(O)c4c3C2=O)NC(=O)/C(C)=C\C=C\[C@H](C)[C@H](O)[C@@H](C)[C@@H](O)[C@@H](C)[C@H](OC(C)=O)[C@@H]1C [Rif, rifampicin]
[1]; Rif (0.05) alone
  % Survival: 52.5%
  Titre: 2.1 × 10^8
[2]; Rif (0.05) alone
  % Survival: 32.5%
  Titre: 1.3 × 10^7
[3]; Table 2, Rif 20 μg/ml alone
  % Survival: 24.2%
  Titre: 3.4 × 10^7
[3]; Table 2, Rif 30 μg/ml alone
  % Survival: 21.4%
  Titre: 3.0 × 10^7
[3]; Table 3, Rif 20 μg/ml alone
  % Survival: 40.0%
  Titre: 1.00 × 10^8
[3]; Table 3, Rif 30 μg/ml alone
  % Survival: 23.3%
  Titre: 5.81 × 10^7
[3]; Table 4, Rif 20 μg/ml alone
  % Survival: 0.0136%
  Titre: 1.5 × 10^4
[3]; Table 4, Rif 30 μg/ml alone
  % Survival: 0.038%
  Titre: 3.8 × 10^4

## O=C(/C=C/C=C/c1ccc2c(c1)OCO2)N1CCCCC1 [piperine]
[4]
  Comparative levels and peak concentration of the drugs in the presence of piperine: higher

## CN(C)[C@@H]1C(=O)C(C(N)=O)=C(O)[C@@]2(O)C(=O)C3=C(O)c4c(O)cccc4[C@@](C)(O)[C@H]3C[C@@H]12 [Tet, tetracycline, reference compound]
[1]; Tet (1.0) alone
  % Survival: 17.5%
  Titre: 7.0 × 10^7
[2]; Tet (2.0) alone
  % Survival: 30.0%
  Titre: 1.2 × 10^8
[3]; Table 4, Tet 1 μg/ml alone
  % Survival: 1.16%
  Titre: 7.0 × 10^6
[3]; Table 4, Tet 2 μg/ml alone
  % Survival: 0.58%
  Titre: 3.5 × 10^6

## CC1(C)S[C@@H]2[C@H](NC(=O)[C@H](N)c3ccccc3)C(=O)N2[C@H]1C(=O)O [Amp, ampicillin, reference compound]
[1]; Amp (0.01) alone
  % Survival: 72.5%
  Titre: 2.9 × 10^8
[2]; Amp (0.1) alone
  % Survival: 25.0%
  Titre: 1.0 × 10^8
[3]; Table 4, Amp 6 μg/ml alone
  % Survival: 3.69%
  Titre: 8.5 × 10^6

## COC(=S)NCc1ccc(O[C@@H]2O[C@@H](C)[C@H](O)[C@@H](O)[C@H]2O)cc1 [niazinin A]
[5]
  Hypotensive and bradycardiac effect: produced hypotensive and bradycardiac effect

## CCn1cc(C(=O)O)c(=O)c2ccc(C)nc21 [Nal, nalidixic acid, reference compound]
[1]; Nal (2.0) alone
  % Survival: 7.75%
  Titre: 3.1 × 10^7
[2]; Nal (1.0) alone
  % Survival: 92.5%
  Titre: 3.7 × 10^8
[3]; Table 4, Nal 6 μg/ml alone
  % Survival: 1.0%
  Titre: 6.0 × 10^6

## niaziminin A
[5]
  Hypotensive and bradycardiac effect: produced hypotensive and bradycardiac effect

## CC1OC(Oc2ccc(CC#N)cc2O)C(O)C(O)C1O (centres unmarked) [Niaziridin, NIAZIRIDIN]
[1]; [12]
  % Survival: 14.2%
  Folds enhancement in killing: 5.1 folds
  Titre: 5.7 × 10^7
[1]; [13]
  % Survival: 1.1%
  Folds enhancement in killing: 7.0 folds
  Titre: 4.6 × 10^6
[1]; [14]
  % Survival: 2.7%
  Folds enhancement in killing: 19.4 folds
  Titre: 1.1 × 10^7
[1]; [15]
  % Survival: 5.0%
  Folds enhancement in killing: 3.5 folds
  Titre: 2.0 × 10^7
[1]; range over both Gram (+) strains (B. subtilis and M. smegmatis)
  Enhancement of activity of rifampicin, ampicillin, nalidixic acid: 1.2-19 folds
[2]; [16]
  % Survival: 5.25%
  Folds enhancement in killing: 4.7 folds
  Titre: 2.1 × 10^7
[2]; [17]
  % Survival: 75.0%
  Folds enhancement in killing: 1.2 folds
  Titre: 3.0 × 10^8
[2]; [14]
  % Survival: 16.75%
  Folds enhancement in killing: 1.9 folds
  Titre: 6.7 × 10^6
[2]; [18]
  % Survival: 7.5%
  Folds enhancement in killing: 4.0 folds
  Titre: 3.0 × 10^7
[6]; FIG. 1
  Enhancement of antimycobacterial activity of rifampicin (Growth Index): able to enhance
[6]; FIG. 2
  Enhancement of antimycobacterial activity of isoniazid (Growth Index): able to enhance
[7]
  Uptake of nutrients like Vitamine B12 through the intestinal gut membrane: able to facilitate the uptake
[8]; MOI 5
  Phage titer, Pellet: 7.7 10^7 pfu
  Phage titer, Supernatant: 7.7 10^7 pfu
[8]; MOI 10
  Phage titer, Pellet: 18.0 10^7 pfu
  Phage titer, Supernatant: 8.0 10^7 pfu
[9]; Clotrimazole 0.5 ug/ml + Niaziridin 10 ug/ml
  Cfu/ml at 36 h: 4.5 × 10^5 Cfu/ml
[9]; Clotrimazole 0.5 ug/ml + Niaziridin 10 ug/ml, 36 h
  Fold enhancement of lethal activity: 5.2 fold
[10]; [19]
  Fold enhancement in DNA transformation: 1.9 fold
  Titre (transformants): 16.0 10^4
[10]; [20]
  Fold enhancement in DNA transformation: 2.3 fold
  Titre (transformants): 20.0 10^4
[11]; [19]
  Fold enhancement in DNA transformation: 1.9 fold
  Titre (transformants): 8.30 10^3
[11]; [20]
  Fold enhancement in DNA transformation: 5.5 fold
  Titre (transformants): 24.0 10^3
[3]; [21]
  % Survival: 0.69%
  Fold enhancement in killing over antibiotic alone: 5.3 fold
  Titre: 1.6 × 10^6
[3]; [22]
  % Survival: 0.02%
  Fold enhancement in killing over antibiotic alone: 50.0 fold
  Titre: 1.2 × 10^5
[3]; [23]
  % Survival: 0.0035%
  Fold enhancement in killing over antibiotic alone: 38.8 fold
  Titre: 3.9 × 10^3
[3]; [24]
  % Survival: 0.003%
  Fold enhancement in killing over antibiotic alone: 12.6 fold
  Titre: 3.0 × 10^3
[3]; [25]
  % Survival: 0.5%
  Fold enhancement in killing over antibiotic alone: 2.3 fold
  Titre: 3.0 × 10^6
[3]; [26]
  % Survival: 0.11%
  Fold enhancement in killing over antibiotic alone: 5.2 fold
  Titre: 7.5 × 10^5
[3]; text summary of Table 4
  Enhancement of activity of commonly used antibiotics (rifampicin, tetracycline, nalidixic acid etc): enhanced activity

## niaziminin B
[5]
  Hypotensive and bradycardiac effect: produced hypotensive and bradycardiac effect

## niazinin B
[5]
  Hypotensive and bradycardiac effect: produced hypotensive and bradycardiac effect

## Clc1ccccc1C(c1ccccc1)(c1ccccc1)n1ccnc1 [Clotrimazole, clotrimazole, reference compound]
[9]; Clotrimazole alone 0.5 ug/ml
  Cfu/ml at 36 h: 23.6 × 10^5 Cfu/ml

## CCOC(=S)NCc1ccc(OC2OC(C)C(O)C(O)C2O)cc1 (centres unmarked) [niazimicin]
[5]
  Hypotensive and bradycardiac effect: produced hypotensive and bradycardiac effect
